The results in this text go back to patent US9718790B2, “Triazine derivative and pharmaceutical composition having an analgesic activity comprising the same” (SHIONOGI & CO., LTD., priority 2010, dated 2017).

What is called IC50 is the concentration at which inhibition is half-maximal.

Each structure is given as a SMILES string.

The assay addresses human P2X3 receptor (Homo sapiens (Human), UniProt P56373). The experiment in a line: Evaluation of human P2X3 receptor inhibitory activity (Fluo-3 calcium fluorescence, FDSS 3000, ATP stimulation).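 Further: stimulus was 50 nM ATP with fluorescence followed for 3 min, and the response per well was peak post-ATP fluorescence divided by the reading at measurement start.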 The class given is cell-based.
Setting [1] is: C6BU-1 cells stably expressing human P2X3 receptor.

human P2X3 receptor, sequence (P56373 whole entry): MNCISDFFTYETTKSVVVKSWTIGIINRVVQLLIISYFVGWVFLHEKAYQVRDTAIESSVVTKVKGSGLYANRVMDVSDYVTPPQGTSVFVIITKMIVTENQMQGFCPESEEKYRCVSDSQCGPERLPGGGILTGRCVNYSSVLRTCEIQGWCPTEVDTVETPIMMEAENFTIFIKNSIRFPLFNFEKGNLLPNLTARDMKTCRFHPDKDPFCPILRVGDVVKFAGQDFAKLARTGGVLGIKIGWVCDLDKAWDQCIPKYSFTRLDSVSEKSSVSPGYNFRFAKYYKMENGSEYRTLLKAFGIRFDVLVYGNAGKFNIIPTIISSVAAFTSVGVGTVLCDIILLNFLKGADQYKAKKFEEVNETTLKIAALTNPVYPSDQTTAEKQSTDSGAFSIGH

In the case of `CCn1c(=O)[nH]/c(=N\c2ccc(Oc3ccsc3C(=O)O)cc2)n(Cc2ccc(Cl)cc2)c1=O` [Compound I-2041], under setting [1], the 50% inhibitory concentration (IC50) worked out at 109 nM.

Turning to `Cc1[nH]c2ccc(/N=c3\[nH]c(=O)n(CCO)c(=O)n3Cc3ccc(Cl)cc3)cc2c1C` [Compound I-2042], under setting [1], the IC50 amounted to 23 nM.

`Cc1[nH]c2ccc(/N=c3\[nH]c(=O)n(C[C@H](O)CO)c(=O)n3Cc3ccc(Cl)cc3)cc2c1C` [Compound I-2043]: under setting [1], the IC50 is 9 nM.

Take `O=c1ccccn1-c1ccc(/N=c2\[nH]c(=O)n(CCO)c(=O)n2Cc2ccc(Cl)cc2)cc1` [Compound I-2044]: the IC50 under setting [1] stood at 125 nM.

Take `Cc1ccc(Cn2c(=O)n(CCC(=O)O)c(=O)[nH]/c2=N\c2ccc(Cl)cc2)cc1` [Compound I-2045]: under setting [1], the 50% inhibitory concentration (IC50) came out at 975 nM.

Regarding `Cc1ccc(Cn2c(=O)n(CCC(=O)O)c(=O)[nH]/c2=N\c2cccc(Cl)c2)cc1` [Compound I-2047], under setting [1], the IC50 turned out to be 384 nM.

With `Cc1ccc(Cn2c(=O)n(CCC(=O)O)c(=O)[nH]/c2=N\c2ccc(OC(C)C)cc2C)cc1` [Compound I-2048], the IC50 under setting [1] stood at 491 nM.

On to `Cc1ccc(Cn2c(=O)n(CCC(=O)O)c(=O)[nH]/c2=N\c2ccc(OC(C)C)cc2F)cc1` [Compound I-2049], for which the IC50 under setting [1] was 85 nM.

Consider `CCOc1ccc(/N=c2\[nH]c(=O)n(CCC(=O)O)c(=O)n2Cc2ccc(C)cc2)c(F)c1F` [Compound I-2052], for which, under setting [1], the IC50 came out at 68 nM.

In the case of `CCOc1cc(F)c(/N=c2\[nH]c(=O)n(CCC(=O)O)c(=O)n2Cc2ccc(C)cc2)c(F)c1` [Compound I-2053], the IC50 under setting [1] came out at 952 nM.

Consider `Cc1ccc(Cn2c(=O)n(CCC(=O)O)c(=O)[nH]/c2=N\c2cccc(Cl)c2F)cc1` [Compound I-2054], for which, under setting [1], the half-inhibitory concentration (IC50) was 611 nM.

With `Cc1ccc(Cn2c(=O)n(C)c(=O)[nH]/c2=N\c2ccc(Oc3ccnc(CO)c3)cc2)cc1` [Compound I-2056], the IC50 under setting [1] is 26 nM.

For `CCn1c(=O)[nH]/c(=N\c2ccc(Oc3ccc(F)c(C(=O)OC)c3)cc2)n(Cc2ccc(Cl)cc2)c1=O` [Compound I-2057], under setting [1], the 50% inhibitory concentration (IC50) was 21 nM.

As for `COC(=O)c1ccc(Oc2ccc(/N=c3\[nH]c(=O)n(C)c(=O)n3Cc3ccc(Cl)cc3)cc2)cc1` [Compound I-2058], the half-maximal inhibitory concentration (IC50) under setting [1] came out at 7 nM.

With `COC(=O)c1cccc(Oc2ccc(/N=c3\[nH]c(=O)n(C)c(=O)n3Cc3ccc(Cl)cc3)cc2)c1` [Compound I-2059], under setting [1], the IC50 came to 56 nM.

On to `Cc1ccc(Cn2c(=O)n(C)c(=O)[nH]/c2=N\c2ccc(Oc3cccc(C(=O)O)c3)cc2)cc1` [Compound I-2060], for which the IC50 under setting [1] was 22 nM.

In the case of `Cc1ccc(Cn2c(=O)n(C)c(=O)[nH]/c2=N\c2ccc(Oc3ccc(C(=O)O)cc3)cc2)cc1` [Compound I-2061], the IC50 under setting [1] came out at 148 nM.

As for `Cn1c(=O)[nH]/c(=N\c2ccc(Oc3ccc(C(=O)O)cc3)cc2)n(Cc2ccc(Cl)cc2)c1=O` [Compound I-2063], the 50% inhibitory concentration (IC50) under setting [1] was 120 nM.

For `Cn1c(=O)[nH]/c(=N\c2ccc(Oc3cccc(C(=O)O)c3)cc2)n(Cc2ccc(Cl)cc2)c1=O` [Compound I-2064], the IC50 under setting [1] is 40 nM.

Turning to `CCn1c(=O)[nH]/c(=N\c2ccc(Oc3cccc(CO)c3)cc2)n(Cc2ccc(Cl)cc2)c1=O` [Compound I-2065], the IC50 under setting [1] is 54 nM.

In the case of `CCn1c(=O)[nH]/c(=N\c2ccc(Oc3ccc(F)c(C(=O)O)c3)cc2)n(Cc2ccc(Cl)cc2)c1=O` [Compound I-2066], the IC50 under setting [1] stood at 23 nM.

With `CCn1c(=O)[nH]/c(=N\c2ccc(Oc3cccc(C(=O)OC)n3)cc2)n(Cc2ccc(Cl)cc2)c1=O` [Compound I-2067], the IC50 under setting [1] was 21 nM.

Turning to `CCOC(=O)OC(=O)c1ccc(Oc2ccc(/N=c3\[nH]c(=O)n(CC)c(=O)n3Cc3ccc(C)cc3)cc2)cc1` [Compound I-2068], under setting [1], the IC50 is 16 nM.

Take `Cc1cc2cc(/N=c3\[nH]c(=O)n(CC4COC(C)(C)OC4)c(=O)n3Cc3ccc(Cl)cc3)ccc2o1` [Compound I-2069]: the concentration for half-maximal inhibition (IC50) under setting [1] stood at 7 nM.

Consider `Cc1cc2cc(/N=c3\[nH]c(=O)n(CC(CO)CO)c(=O)n3Cc3ccc(Cl)cc3)ccc2o1` [Compound I-2070], for which the 50% inhibitory concentration (IC50) under setting [1] is 19 nM.

For the molecule `Cc1oc2ccc(/N=c3\[nH]c(=O)n(CC4COC(C)(C)OC4)c(=O)n3Cc3ccc(Cl)cc3)cc2c1C` [Compound I-2071], under setting [1], the IC50 is 8 nM.

For the molecule `Cc1oc2ccc(/N=c3\[nH]c(=O)n(CC(CO)CO)c(=O)n3Cc3ccc(Cl)cc3)cc2c1C` [Compound I-2072], the IC50 under setting [1] amounted to 8 nM.

Take `Cc1oc2ccc(/N=c3\[nH]c(=O)n(CCCOC4CCCCO4)c(=O)n3Cc3ccc(Cl)cc3)cc2c1C` (centres unmarked) [Compound I-2073]: the half-inhibitory concentration (IC50) under setting [1] worked out at 10 nM.

Turning to `Cc1oc2ccc(/N=c3\[nH]c(=O)n(CCCO)c(=O)n3Cc3ccc(Cl)cc3)cc2c1C` [Compound I-2074], under setting [1], the IC50 stood at 7 nM.

On to `CCn1c(=O)[nH]/c(=N\c2ccc(Oc3cncc(CO)c3)cc2)n(Cc2ccc(Cl)cc2)c1=O` [Compound I-2075], for which the half-inhibitory concentration (IC50) under setting [1] was found to be 21 nM.

`CCn1c(=O)[nH]/c(=N\c2ccc(Oc3cncc(C(=O)OC)c3)cc2)n(Cc2ccc(C)cc2)c1=O` [Compound I-2076]: under setting [1], the 50% inhibitory concentration (IC50) was determined as 7 nM.

Turning to `O=c1[nH]/c(=N\c2ccc(Oc3cncc(CO)c3)cc2)n(Cc2ccc(Cl)cc2)c(=O)n1CCOC1CCCCO1` (centres unmarked) [Compound I-2077], the 50% inhibitory concentration (IC50) under setting [1] turned out to be 3 nM.

For `CCn1c(=O)[nH]/c(=N\c2ccc(Oc3cncc(C(=O)O)c3)cc2)n(Cc2ccc(C)cc2)c1=O` [Compound I-2078], the IC50 under setting [1] stood at 8 nM.

On to `O=c1[nH]/c(=N\c2ccc(Oc3cncc(CO)c3)cc2)n(Cc2ccc(Cl)cc2)c(=O)n1CCO` [Compound I-2079], for which the 50% inhibitory concentration (IC50) under setting [1] came out at 38 nM.

On to `Cc1ccc(Cn2c(=O)n(CCC(=O)O)c(=O)[nH]/c2=N\c2cc(C(F)(F)F)ccc2C)cc1` [Compound I-2082], for which the 50% inhibitory concentration (IC50) under setting [1] stood at 833 nM.

Take `Cc1ccc(Cn2c(=O)n(CCC(=O)O)c(=O)[nH]/c2=N\c2cccc(C(F)(F)F)c2C)cc1` [Compound I-2085]: the concentration for half-maximal inhibition (IC50) under setting [1] turned out to be 852 nM.

Turning to `Cc1ccc(Cn2c(=O)n(CCC(=O)O)c(=O)[nH]/c2=N\c2cccc(C(F)(F)F)c2F)cc1` [Compound I-2086], the IC50 under setting [1] turned out to be 234 nM.

In the case of `Cc1ccc(Cn2c(=O)n(CCC(=O)O)c(=O)[nH]/c2=N\c2c(Cl)ccc(C(F)(F)F)c2C)cc1` [Compound I-2090], under “human P2X3 receptor, Test Example 1”, the half-inhibitory concentration (IC50) is below 4 nM.

On to `CCn1c(=O)[nH]/c(=N\c2ccc(Oc3cccc(C(=O)O)n3)cc2)n(Cc2ccc(Cl)cc2)c1=O` [Compound I-2095], for which the IC50 under setting [1] turned out to be 5 nM.

On to `CCn1c(=O)[nH]/c(=N\c2ccc(Oc3nccc(OC)n3)cc2)n(Cc2ccc(Cl)cc2)c1=O` [Compound I-2096], for which the IC50 under setting [1] is 35 nM.

Take `Cc1nc2ccc(/N=c3\[nH]c(=O)n(C[C@H](O)CO)c(=O)n3CC3CCC(C)CC3)cc2s1` (some centres unmarked) [Compound I-2097]: the concentration for half-maximal inhibition (IC50) under setting [1] turned out to be 5 nM.

With `Cc1nc2ccc(/N=c3\[nH]c(=O)n(CCO)c(=O)n3CC3CCC(C)CC3)cc2s1` (centres unmarked) [Compound I-2098], the IC50 under setting [1] is 4 nM.

`Cn1c(=O)[nH]/c(=N\c2ccc(Oc3ccnc(C(=O)O)c3)cc2)n(Cc2ccc(Cl)cc2)c1=O` [Compound I-2099]: the concentration for half-maximal inhibition (IC50) under setting [1] worked out at 8 nM.

Regarding `Cc1ccc(Cn2c(=O)n(C)c(=O)[nH]/c2=N\c2ccc(Oc3ccnc(C(=O)O)c3)cc2)cc1` [Compound I-2100], the concentration for half-maximal inhibition (IC50) under setting [1] was found to be 7 nM.

Take `CNC(=O)c1cc(Oc2ccc(/N=c3\[nH]c(=O)[nH]c(=O)n3Cc3ccc(Cl)cc3)cc2F)ccn1` [Compound I-2101]: the IC50 under setting [1] was 26 nM.

Take `Cc1ccc(Cn2c(=O)[nH]c(=O)[nH]/c2=N\c2ccc(Oc3cncc(C(=O)O)c3)cc2)cc1` [Compound I-2102]: the IC50 under setting [1] turned out to be 34 nM.

For the molecule `Cn1c(=O)[nH]/c(=N\c2ccc(Oc3cncc(C(=O)O)c3)cc2)n(Cc2ccc(Cl)cc2)c1=O` [Compound I-2103], under setting [1], the IC50 came out at 20 nM.

Regarding `CCn1c(=O)[nH]/c(=N\c2ccc(Oc3ccc(C(=O)OC)nc3)cc2)n(Cc2ccc(Cl)cc2)c1=O` [Compound I-2105], the IC50 under setting [1] stood at 1 nM.

Regarding `CCn1c(=O)[nH]/c(=N\c2ccc(Oc3ccc(C(=O)OC)nc3)cc2)n(Cc2ccc(C)cc2)c1=O` [Compound I-2106], under setting [1], the IC50 was 2 nM.

For the molecule `CCn1c(=O)[nH]/c(=N\c2ccc(Oc3cc(C(N)=O)on3)cc2)n(Cc2ccc(Cl)cc2)c1=O` [Compound I-2107], the IC50 under setting [1] amounted to 7 nM.

Turning to `CCn1c(=O)[nH]/c(=N\c2ccc(Oc3nccc(O)n3)cc2)n(Cc2ccc(Cl)cc2)c1=O` [Compound I-2108], under setting [1], the half-maximal inhibitory concentration (IC50) is 26 nM.

As to `CC(C)Oc1ccc(/N=c2\[nH]c(=O)n(CCN(CCO)C(=O)OC(C)(C)C)c(=O)n2Cc2ccc(Cl)cc2)cc1F` [Compound I-2109], the IC50 under setting [1] came out at 11 nM.

Take `CCn1c(=O)[nH]/c(=N\c2ccc(Oc3ccnc(C(=O)NC)c3)cc2)n(Cc2ccc(F)cc2)c1=O` [Compound I-2110]: under setting [1], the half-inhibitory concentration (IC50) turned out to be 12 nM.

Consider `CCn1c(=O)[nH]/c(=N\c2ccc(Oc3cncc(C(=O)OC)c3)cc2)n(Cc2ccc(F)cc2)c1=O` [Compound I-2111], for which the IC50 under setting [1] came to 44 nM.

As for `CCn1c(=O)[nH]/c(=N\c2ccc(Oc3cncc(C(=O)O)c3)cc2)n(Cc2ccc(F)cc2)c1=O` [Compound I-2112], under setting [1], the IC50 is 47 nM.

On to `COC(=O)c1cc(Oc2ccc(/N=c3\[nH]c(=O)n(CCOC4CCCCO4)c(=O)n3Cc3ccc(Cl)cc3)cc2)no1` (centres unmarked) [Compound I-2113], for which the half-inhibitory concentration (IC50) under setting [1] was found to be 1 nM.

For `CCn1c(=O)[nH]/c(=N\c2ccc(Oc3ccc(CO)nc3)cc2)n(Cc2ccc(Cl)cc2)c1=O` [Compound I-2114], the IC50 under setting [1] is 7 nM.

On to `CCn1c(=O)[nH]/c(=N\c2ccc(Oc3ccc(C(=O)O)nc3)cc2)n(Cc2ccc(Cl)cc2)c1=O` [Compound I-2115], for which the half-maximal inhibitory concentration (IC50) under setting [1] is 18 nM.

For the molecule `CCn1c(=O)[nH]/c(=N\c2ccc(Oc3ccc(C(=O)O)nc3)cc2)n(Cc2ccc(C)cc2)c1=O` [Compound I-2116], the IC50 under setting [1] worked out at 15 nM.

Consider `O=C(O)c1cc(Oc2ccc(/N=c3\[nH]c(=O)n(CCO)c(=O)n3Cc3ccc(Cl)cc3)cc2)no1` [Compound I-2117], for which, under setting [1], the IC50 was 23 nM.

As for `O=c1[nH]/c(=N\c2ccc(Oc3cc(CO)on3)cc2)n(Cc2ccc(Cl)cc2)c(=O)n1CCO` [Compound I-2118], the IC50 under setting [1] amounted to 35 nM.

Turning to `CCn1c(=O)[nH]/c(=N\c2ccc(Oc3ccc(C(N)=O)nc3)cc2)n(Cc2ccc(Cl)cc2)c1=O` [Compound I-2119], the IC50 under setting [1] amounted to 1 nM.
